# Source: US9011862B2, “Inhibitors of the nitration of amyloid β peptides and their uses in the diagnosis and treatment of Alzheimer's disease” (Rheinische Friedrich-Wilhelms-Universität Bonn, priority 2009, dated 2015)
# Entries after “also recorded” stand apart in the source; their conditions may differ.
# Tests used:
# [1] = test system: primary microglial cells; assay: Microglial phagocytosis of FAM-labeled Aβ1-42; assay type: cell-based, mouse; conditions: 500 nM FAM-Aβ1-42
# Procedure: (4A) Analysis of phagocytosis of primary microglia cells from wild type (wt) and iNOS deficient (iNOS (−/−)) mice exposed to 500 nM fibrillar FAM labeled Aβ1-42 peptide for up to 6 h.
# Primary microglial cell cultures were prepared as previously described. Briefly, mixed glial cultures were prepared from newborn mice and cultured in DMEM supplemented with 10% FCS and 100 U ml^−1 penicillin/streptomycin. After 10-14 days of primary cultivation, microglial cells were harvested by shake off.
# Microglial phagocytosis of FAM-labeled Aβ1-42 (FAM-Aβ) (Anaspec, San Diego, Calif.) was measured by plate based assay. Cells were plated at 50000 cells per well. After 1 h cells Aβ was added to a final concentration of 500 nM and incubated. Finally, the Aβ-containing medium was removed and extracellular Aβ was quenched with 100 μl 0.2% trypan blue in PBS pH 4.4 for 1 min. After aspiration fluorescence was measured at 485 nm excitation/535 nm emission using a Spectrafluor Plus reader (Tecan, Austria). To normalize for cell numbers 100 μl 50 μg/ml H33342 in PBS was added, incubated for 30 min and the fluorescence measured at 360 nm excitation/465 nm emission.
# [2] = test system: Aβ1-42; assay: Aβ aggregation assay (SDS-PAGE, immunoblot 6E10); assay type: biochemical, human; conditions: compared with Aβ1-42
# Procedure: (§1) (6B) Same assay as in A but samples were incubated for different time periods with PN.
# (§2) Peptides were separated by 4-12% Nupage and blotted transferred nitrocelluse and incubated with antibody 6E10 (Signet). The remaining sample was stored at −20° C. and analyzed by mass spectrometry. In case of the time course experiment the reaction was stopped using Nupage sample buffer followed by incubation at 70 C for 5 min.
# (§3) Aβ1-42, Aβ1-42 Y10F (Peptide Specialty Laboratories) were solubilized as previously described. For nitration samples were incubated with 0.25-0.5 mM peroxynitrate in water while vortexing. Aggregation was started by diluting samples to 25 μM using 50 mM Tris-HCl pH 7. Samples were separated by 4-12% NuPAGE and aggregates were detected using anti-body 6E10 (Signet) and 3-NTyr10-Aβ. Aggregation was expressed as a ratio between the signal above 30 kDa and the Aβ monomer, normalized to the 0 time point of Aβ1-42. Thioflavin T fluorescence assays were performed as described previously. Fluorescence was read at 446 nm (excitation) and 482 nm (emission) using a fluorescence spectrophotometer (Varian).
# [3] = molecular target: T1, Aβ1-42 (Homo sapiens, UniProt P05067); assay: In vitro Aβ1-42 aggregation with added nitrated Aβ1-42; assay type: biochemical; conditions: 25 μM Aβ1-42, 5 h, antibody IC16
# T1 construct: Amyloid β 1-42 or Amyloid β 1-42 Y10A (both from rPeptide, Bogart, Ga., USA); host or cells: synthetic peptide
# [4] = test system: Aβ1-42; assay: Thioflavin T aggregation assay; assay type: biochemical, human; conditions: peptide treated with peroxynitrite, compared with Aβ1-42
# Procedure: as §3
# [5] = molecular target: T2, recombinant neprilysin (Homo sapiens, UniProt P08473); assay: Fluorogenic substrate enzymatic assay, neprilysin; assay type: biochemical; conditions: preincubation with different concentrations of Sin-1
# T2 construct: purchased R&D
# Procedure: (§4) Afterwards the substrate was added to a final concentration of 10 μM. The hydrolysis of substrate V was measured based on the increase of fluorescence (exitation 320 nm/emission 405 nm) using a Spectrafluor Plus (Tecan, Austria) plate reader for a time period of up to 60 min in 1 min intervals at 37 C. Determination of IDE activity in mouse brain was performed using the fluorogenic peptide substrate 2-aminobenzoyl-[…]-ethylenediamine-2,4-dinitrophenyl (Bachem, Switzerland)^21. For that mice brains were homogenized in PBS containing 1 mM AEBSF, extracted with 1% Tx-100 and centrifuged at 100000×g for 30 min. 10 μg of supernatants were incubated with 25 μM phosphoramidon to inhibit endogenous neprilysin activity. The fluorogenic substrate was added to a final concentration of 20 μM and the resulting fluorescence signal was measured (excitation 320 nm/emission 413 nm) every 3 min for up to 2 h at 37° C. using a infinite 200 plate reader (Tecan, Austria). Evaluation was done within the linear range of the reaction.
# [6] = molecular target: T3, recombinant IDE (Homo sapiens, UniProt P14735); assay: Aβ degradation assay; assay type: biochemical; conditions: IDE preincubated with increasing concentration of Sin-1, then Aβ1-42 for 2 h
# T3 construct: purchased R&D
# T3 sequence (P14735 1-1019): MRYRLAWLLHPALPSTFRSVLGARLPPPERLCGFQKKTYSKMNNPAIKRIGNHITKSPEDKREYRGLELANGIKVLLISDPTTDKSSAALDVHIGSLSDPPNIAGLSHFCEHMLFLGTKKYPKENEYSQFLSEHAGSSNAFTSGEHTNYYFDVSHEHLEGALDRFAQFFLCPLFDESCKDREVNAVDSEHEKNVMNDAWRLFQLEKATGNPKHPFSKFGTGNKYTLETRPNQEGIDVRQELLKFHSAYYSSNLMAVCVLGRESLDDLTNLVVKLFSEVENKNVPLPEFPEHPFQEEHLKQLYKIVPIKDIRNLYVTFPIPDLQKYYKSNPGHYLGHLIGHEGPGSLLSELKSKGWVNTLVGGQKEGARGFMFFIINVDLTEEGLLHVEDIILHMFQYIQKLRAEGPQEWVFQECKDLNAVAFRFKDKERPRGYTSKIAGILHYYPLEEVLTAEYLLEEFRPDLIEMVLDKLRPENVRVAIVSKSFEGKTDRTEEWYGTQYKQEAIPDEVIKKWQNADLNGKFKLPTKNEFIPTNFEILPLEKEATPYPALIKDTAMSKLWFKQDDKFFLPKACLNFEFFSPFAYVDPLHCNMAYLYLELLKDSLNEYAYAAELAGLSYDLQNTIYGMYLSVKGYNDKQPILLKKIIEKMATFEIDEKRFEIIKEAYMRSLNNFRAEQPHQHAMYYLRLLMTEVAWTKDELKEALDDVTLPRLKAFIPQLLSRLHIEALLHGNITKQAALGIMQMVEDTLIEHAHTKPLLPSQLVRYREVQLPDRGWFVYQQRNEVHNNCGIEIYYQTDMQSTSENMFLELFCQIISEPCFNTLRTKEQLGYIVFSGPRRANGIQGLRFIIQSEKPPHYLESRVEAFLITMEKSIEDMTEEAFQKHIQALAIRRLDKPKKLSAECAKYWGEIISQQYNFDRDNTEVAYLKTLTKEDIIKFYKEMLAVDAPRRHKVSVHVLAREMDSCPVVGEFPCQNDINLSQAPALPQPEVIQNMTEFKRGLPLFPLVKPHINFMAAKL
# Text: Samples were separated by 4-12% NuPAGE and immunoblotted using antibodies PC720 against IDE and 6E10 against Aβ (5E) RIPA fractions of 12 month wild type, APP/PS1 and APP/PS1 iNOS (−/−) animals were monitored for their ability to cleave a fluorgenic peptide substrate in the presence of the neprilysin inhibitor phosphoramidon (n=4+/−SEM, one way anova followed by Tukey post hoc test, […], *p<0.05)
# [7] = molecular target: T1, Aβ1-42; assay: Aβ aggregation assay (SDS-PAGE, immunoblot 6E10); assay type: biochemical; conditions: for high molecular weight (SDS-resistant) aggregates of synthetic Aβ1-42 after incubation with the agent: 5 mM Sin-1 or 0.25 mM peroxynitrite, 18 h
# Procedure: as §1, §2, §3
# [8] = molecular target: T3, recombinant IDE; assay: Immunoblot of IDE nitration after Sin-1 incubation; assay type: biochemical; conditions: Sin-1 incubated with purified recombinant IDE
# [9] = molecular target: T3, recombinant IDE; assay: Fluorogenic substrate enzymatic assay, IDE; assay type: biochemical; conditions: 1 mM Sin-1, 30 min preincubation
# Procedure: as §4
# [10] = test system: APP/PS1 mice; assay: Hippocampal LTP recording on brain slices of treated mice; assay type: in vivo, mouse
# Text: (n=5+/−SEM) Right panel: Evaluation of the early (slope 1; […]; […]) of the amplitude of the mean fEPSP (n=5+/−SEM of ten minutes recordings, one-way ANOVA, Newman-Keuls post test, *p<0.05; **p<0.01; ***p<0.001) (2B) Determination of the slope of the mean fEPSP as in A. Right panel: Evaluation of the amplitude of the mean fEPSP (2C) Immunblot of brain homogenates and synaptosomal fractions in wild type and APP/PS1 animals at 12 month of age using an anti-S-nitrocystein specific antibody. (2D) Coomassie stain of anti-S-nitrocystein antibody precipitated synaptosomal fractions from wild type, APP/PS1, APP/PS1 iNOS (−/−) and APP/PS1 L-NIL mice separated by SDS-PAGE (2E) Protein sequence of Hsp75/mortalin. […]
# Physiological recordings were performed on brain slices from 3 month old male and female mice, obtained after anesthetization with isoflurane and decapitation. […] Basal synaptic transmission (BST) was assessed by plotting the current (mA) against the peak amplitudes of fEPSP to generate input-output relations. Paired pulse facilitation (PPF) were recorded by applying interstimulus intervals of 30, 50, 75 and 100 ms. For long term potentiation (LTP) experiments a 15 min baseline were recorded with a interpulse interval of one minute at an intensity that evoked a response approximately 30% of maximum fEPSP. […]
# [11] = test system: APP/PS1 mice; assay: Brain extract Aβ immunoblot and Aβ1-40/Aβ1-42 ELISA; assay type: in vivo, mouse
# [12] = test system: APP/PS1 mice; assay: Eight arm radial maze test; assay type: in vivo, mouse
# [13] = APP/PS1 mice at 3 month of age, L-NIL orally in the water from 2-3 month
# T1 sequence (P05067 672-713): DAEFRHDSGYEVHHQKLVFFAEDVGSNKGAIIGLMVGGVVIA
# T2 sequence (P08473 whole entry, species assumed): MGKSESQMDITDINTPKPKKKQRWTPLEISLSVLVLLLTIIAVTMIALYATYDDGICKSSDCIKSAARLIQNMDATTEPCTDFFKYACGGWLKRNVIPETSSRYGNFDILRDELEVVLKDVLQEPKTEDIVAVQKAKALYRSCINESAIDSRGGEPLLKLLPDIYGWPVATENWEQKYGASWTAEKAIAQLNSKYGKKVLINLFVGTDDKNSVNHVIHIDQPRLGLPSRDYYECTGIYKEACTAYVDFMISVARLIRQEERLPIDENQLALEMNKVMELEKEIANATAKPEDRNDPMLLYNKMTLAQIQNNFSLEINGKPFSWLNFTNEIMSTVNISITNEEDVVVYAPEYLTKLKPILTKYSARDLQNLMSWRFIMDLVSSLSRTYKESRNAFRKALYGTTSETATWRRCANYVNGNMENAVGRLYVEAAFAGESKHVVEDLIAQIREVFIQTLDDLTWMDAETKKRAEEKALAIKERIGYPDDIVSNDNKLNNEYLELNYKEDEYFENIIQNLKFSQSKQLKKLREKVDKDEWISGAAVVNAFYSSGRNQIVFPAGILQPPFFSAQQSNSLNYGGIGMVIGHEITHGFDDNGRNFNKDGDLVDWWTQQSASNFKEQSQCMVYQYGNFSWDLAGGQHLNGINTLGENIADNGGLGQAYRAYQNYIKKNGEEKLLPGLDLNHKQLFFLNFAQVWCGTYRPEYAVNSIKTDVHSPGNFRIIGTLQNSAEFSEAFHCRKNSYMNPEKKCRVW
molecule,measurement,setting,value
CC(=O)N[C@@H](C(=O)O)C(C)(C)SN=O (racemic) [SNAP],Aβ1-42 phagocytosis,[1]; SNAP 100 μM,did not expose differences
"Aβ42Y10A: modified human Aβ1-42, tyrosine at position 10 replaced by an alanine (SEQ ID NO. 2)",high molecular weight aggregates of the mutated peptide after incubation with peroxynitrite or Sin-1,[2],reduced aggregation to the level of untreated Aβ1-42
nitrated Aβ1-42: synthetic Aβ1-42 nitrated at tyrosine 10 by peroxynitrite treatment,formation of Aβ oligomers on addition of small amounts of nitrated Aβ1-42 species,[3],increased formation
same,formation rate of β-sheet amyloid fibril structures (thioflavin T),[4],increased formation rate
Aβ42Y10F: Aβ1-42 peptide with a tyrosine to phenylalanine mutation at position 10,high molecular weight aggregates of the mutated peptide after incubation with peroxynitrite or Sin-1,[2],reduced aggregation to the level of untreated Aβ1-42
same,formation rate of β-sheet amyloid fibril structures (thioflavin T),[4],prevented
"N=c1c[n+](N2CCOCC2)[n-]o1 [Sin-1, 3-morpholino-sydnonimine]",activity of neprilysin,[5],could not detect any impact
same,degradation of Aβ1-42 by IDE,[6],decreased degradation
same,high molecular weight (SDS-resistant) aggregates of synthetic Aβ1-42 after incubation with the agent,[7],strong induction; also recorded: increased generation
same,nitration of IDE (nitrotyrosine immunoblot),[8],modifications of IDE detectable with an nitrotyrosine specific antibody
same,IDE activity,[9],almost complete inhibition
"CC(=N)NCCCC[C@H](N)C(=O)O [L-NIL, L-N6-(1-iminoethyl)-lysine]",LTP,[10]; APP/PS1 mice at 3 months of age (summary statement),improvement
same,APP/PS1 induced reduction (suppression) of early and late phase hippocampal LTP,"[10]; hippocampal slices of 3 month old mice, L-NIL from 2-3 month, 10 and after induction",completely prevented; also recorded: not existent
same,levels of insoluble and soluble Aβ40 and Aβ42 by ELISA,[11]; 5 month old APP/PS1 mice preventively treated with L-NIL from 2-3 month,unable to detect any changes
same,insoluble Aβ by immunoblot and insoluble Aβ 1-40 and Aβ 1-42 by ELISA,"[11]; 12 month old APP/PS1 mice, L-NIL from 6-12 month",strong reduction
same,working memory errors,[12]; APP/PS1 mice at 3 and 12 months of age (summary statement),significant reduction
same,reference memory errors,[12]; [13],protected
same,working memory errors,[12]; [13],to some extent
same,reference memory errors,"[12]; APP/PS1 mice at 12 month of age, L-NIL from 6-12 month (post plaque, therapeutic)",reversion of APP/PS1 phenotype
same,working and reference memory errors,"[12]; APP/PS1 mice treated with L-NIL, age not stated (summary statement)",reduction
same,Aβ1-42 phagocytosis,[1]; L-NIL 10 μM,did not expose differences
O=NOO [peroxynitrite],high molecular weight (SDS-resistant) aggregates of synthetic Aβ1-42 after incubation with the agent,[7],increased generation
same,high molecular weight (SDS-resistant) aggregates of synthetic Aβ1-42 after incubation with the agent,[7]; listed as peroxynitrit,strong induction
same,increase of high molecular aggregates over time,[7]; within 24 h after peroxynitrite treatment,x-fold increase
